In one series the test system is craNCSC clone D7-1. The series can be described thus: AG490 (Jak inhibitor) treatment of long-term cultured craNCSC clone D7-1, alive cell count. The format is cell-based, mouse. The settings on record: counted daily, vs 0.4% DMSO vehicle. Here is the method:
(§1) AG490 (Sigma Chemical Co., St Louis, Mo., USA) was reconstituted in dimethyl sulfoxide (DMSO) and stored at −20° C. A stock concentration was 10 mM. Cranial tissues of Wnt1-Cre;R26R;EGFP mouse at E8.5 were dissociated by 0.025% trypsin and 1 mg/ml collagenase in DPBS. Then, neural crest cells labeled with Wnt1-Cre;R26R;EGFP were sorted by means of FACS and used for Jak inhibitor treatment. D7-1 or primary cultured cranial neural crest cells were seeded to fibronectin coated plate at a density of 20000 or 12700 cell/cm^2 respectively, and incubated for three days in basal medium as described above, added with either control DMSO, 10 μM AG490, or 20 μM AG490. Culture medium was changed daily. Alive cell number was counted on each day for D7-1 and third day for primary cultured cells.
The hypothesis that phosphorylation of STAT3 by JAK kinase is essential for the maintenance of craNCSC was also investigated. JAK inhibitor AG490 was used for this study. AG490 is synthetic PTK inhibitor with anti-JAK2 activity. […] If craNCSC require the JAK-STAT signal for its maintenance, treatment of AG490 will cause overt effects. 10 μM and 20 μM AG490 treatment against D7-1 was performed for three days and alive cell number was counted on each day. […] Dose dependent susceptibility of D7-1 against AG490 was also evident.

Series [1] relates to primary cultured cranial neural crest cells. The series can be described thus: AG490 (Jak inhibitor) treatment of primary cultured cranial neural crest cells, alive cell count. The format is cell-based, mouse. The settings on record: E8.5 FACS sorted cells. Here is the method: as §1
These experiments were done with a long-term cultured craNCSC clone, D7-1, which has been treated with LIF during entire culture process. Therefore, it is possible that D7-1 cells has been poised to LIF and adopted to the JAK-STAT dependent culture condition. To evaluate this, Applicants freshly isolated Wnt1-Cre;R26R;EGFP positive cranial neural crest cells from E8.5 mouse embryos by FACS sorting and treated them with AG490 for three days. If JAK2 activity is dispensable to these primary neural crest, chemical treatment would not cause any apparent effects. […]

The next series deals with STAT3 negative cells. The following applies: 80 μM AG490; cited from earlier work.
Series [2] relates to human B-precursor leukemic cell line. The settings on record: by inducing apoptosis; cited from earlier work.
Series [3] relates to cells which are independent from the JAK-STAT signal. The following applies: cited from earlier work.

“Also recorded” adds a separate entry of the source.

For the compound `N#C/C(=C/c1ccc(O)c(O)c1)C(=O)NCc1ccccc1` [AG490], the “alive (viable) cell number” value is “smaller effect; also recorded: more modest effect” with craNCSC clone D7-1 (10 μM AG490, three days) and “significant reduction of the viable cells; also recorded: significant depletion of cell survival” with craNCSC clone D7-1 (20 μM AG490, three days). For the same compound, the “cell mortality (alive cell number)” value in series [1] (10 μM AG490, three days) was “High cell mortality”; in series [1] (20 μM AG490, three days) it was “High cell mortality”. For the same compound, in the series with STAT3 negative cells, the general toxicity entry is “does not cause general toxicity”. Besides, in series [2], the cell growth result was “prevents the growth”. Moreover, the effect on cells entry in series [3] is on record as “no obvious effect”.

The values are drawn from patent publication US20120219535A1, “CRANIAL NEURAL CREST STEM CELLS AND CULTURE CONDITION THAT SUPPORTS THEIR GROWTH” (University of Southern California, priority 2009, published 2012).
